Earlier results, collected in patent publication US20240315972A1, “PROTEIN CONTAINING BIO-ACTIVE COMPOSITIONS COMPRISING CELLULOSE MICROPARTICLE CARRIERS” (priority 2021, published 2024).

How the values were obtained:
large native proteins = details: versus its mesophilic analogue
[1] = test system: herpes simplex virus type 1 (HSV-1); details: in vitro
[2] = test system: respiratory syncytial virus (RSV); details: in vitro
[3] = test system: interferon (IFN) signaling; details: 5 BAEE U/mL (4.5 μg/mL porcine trypsin)

Trypsin
Effectiveness in degrading large native proteins relative to mesophilic analogue (large native proteins): 3-12 times | Efficacy against HSV-1 [1]: high efficacy | Efficacy against RSV [2]: high efficacy | Effect on interferon (IFN) signaling [3]: strongly inhibited
